Data on five molecules can be found in EP4678638A1, “NEW E3 UBIQUITIN LIGASE LIGAND, PROTEIN DEGRADATION AGENT AND USE THEREOF” (priority 2023, dated 2024).

The subject of one test is H2228. Kind of test: CCK-8 proliferation, NCI-H2228 (H2228). In kind it is cell-based. To be noted: Homo sapiens, NCI-H2228; Table B6, compounds designed based on the ALK inhibitors; H2228 cells; read-out: Inhibitory activity (IC50, nM) on tumor cell proliferation, H2228. An outline of the steps:
(§1)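 Cells seeded, then after 24 h treated with 10 concentrations (top 10 µM, 5-fold serial dilution) for a line-specific time at 37°C, 5% CO2. Viability read by CCK-8; IC50 fitted from growth-inhibition curves.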

A further test has as its target T1, ALK (Homo sapiens, UniProt Q96SW2+Q9HC35+Q9UM73).
T1 construct: evaluate the effects of the compounds of the present disclosure on the expression of target proteins in cells; endogenous in cells; host or cells: H2228
Description: Western blot degradation of ALK (H2228 Cell). In kind it is cell-based. To be noted: Table D5. An outline of the steps:
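Quantification by ImageJ densitometry of Western blot bands: DC50 is the fitted concentration halving band intensity relative to DMSO. Percent remaining uses internal-control normalization, and degradation rate is its complement.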
For orientation: Immunoblotting shows a protein as a band on a membrane.

The next test relates to MDA-MB-231. Description: CCK-8 proliferation, MDA-MB-231. Format: cell-based. As to conditions: Homo sapiens; Table B6, compounds designed based on the ALK inhibitors; MDA-MB-231 cells; read-out: Inhibitory activity (IC50, nM) on tumor cell proliferation, MDA-MB-231. The procedure:
The tumor cells used herein were cultured in a cell culture medium listed in table A1 at 37°C in an incubator with 5% CO2. Prior to experimentation, all cell lines used were correctly identified by STR profiling, and tested negative for mycoplasma contamination using a mycoplasma detection kit through routine screenings. Table A1. Tumor cells and cell culture medium used in the present disclosure
IC50 values of the compounds of the present disclosure (including the compounds in Table 1, and compounds of examples) were measured using the Meilun Cell Counting Kit-8 kit from Dalian Meilun Biotech Co., Ltd. Assay details are as follows: tumor cells were seeded in a 96-well plate at a density listed in Table A2. After 24h, 100 µL of the inoculated cells were treated with 0.5µL of the compounds of the present disclosure (including the compounds in Tables 1 and 2, and compounds of examples) at 10 different successively decreasing concentrations (starting at the highest concentration of 10µM; 5-fold serial dilutions). After the cells were treated with the compounds of the present disclosure for a period of time, the cell viability detection reagent was added to the culture medium for cell viability assessment according to the instructions provided with the CCK-8 kit. […] The growth inhibition of the compounds of the present disclosure on cells was plotted by Prism Graphpad software, and the IC50 values of the compounds of the present disclosure were calculated therefrom. […] Seeding protocol and treatment time for tumor cells

In the next test the test system is MM.1S. Description: CCK-8 proliferation, MM.1S. In kind it is cell-based. As to conditions: Homo sapiens, MM1.S; Table B6, compounds designed based on the ALK inhibitors; MM.1S cells; read-out: Inhibitory activity (IC50, nM) on tumor cell proliferation, MM.1S. An outline of the steps: as §1
The test system of the next test is H1975. Kind of test: CCK-8 proliferation, NCI-H1975 (H1975). Format: cell-based, Human. To be noted: Homo sapiens, NCI-H1975; Table B6, compounds designed based on the ALK inhibitors; H1975 cells; read-out: Inhibitory activity (IC50, nM) on tumor cell proliferation, H1975. The procedure, abridged: as §1
The subject of a further test is SR. Description: CCK-8 proliferation, SR. In kind it is cell-based, Human. To be noted: Homo sapiens; Table B6, compounds designed based on the ALK inhibitors; SR cells; read-out: Inhibitory activity (IC50, nM) on tumor cell proliferation, SR. An outline of the steps: as §1
The subject of the next test is MCF7. Description: CCK-8 proliferation, MCF7 (MCF-7). In kind it is cell-based. As to conditions: Homo sapiens, MCF7; Table B6, compounds designed based on the ALK inhibitors; MCF-7 cells; read-out: Inhibitory activity (IC50, nM) on tumor cell proliferation, MCF-7. An outline of the steps:
as §1

In test [1] the target is T2, human Cereblon WT GST-tagged protein (Homo sapiens, UniProt Q96SW2).
T2 construct: purchased CISBIO 64BDCRBNPEH
T2 sequence (Q96SW2 whole entry): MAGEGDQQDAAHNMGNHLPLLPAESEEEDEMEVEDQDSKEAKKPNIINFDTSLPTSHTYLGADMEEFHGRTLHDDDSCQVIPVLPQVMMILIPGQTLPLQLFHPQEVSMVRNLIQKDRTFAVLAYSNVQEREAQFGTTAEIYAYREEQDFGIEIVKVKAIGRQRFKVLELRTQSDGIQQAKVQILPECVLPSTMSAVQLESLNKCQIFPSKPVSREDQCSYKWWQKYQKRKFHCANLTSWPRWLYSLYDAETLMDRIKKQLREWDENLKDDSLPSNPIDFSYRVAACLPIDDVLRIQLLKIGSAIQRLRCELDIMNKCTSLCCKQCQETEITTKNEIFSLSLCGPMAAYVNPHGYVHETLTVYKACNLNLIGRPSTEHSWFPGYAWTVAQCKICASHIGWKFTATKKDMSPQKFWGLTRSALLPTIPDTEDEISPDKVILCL
Kind of test: CRBN binding, HTRF (CEREBLON BINDING kit). As to conditions: Table II-2, CRBN binding screening, HTRF. An outline of the steps:
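After 3 h at room temperature, emission at 665 and 620 nm was measured in a homogeneous time-resolved fluorescence format. Compounds competed with a Thalidomide-Re probe for GST-tagged wild-type human CRBN, which was labelled with a Eu anti-GST antibody.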

T1 sequence (Q9HC35+Q9UM73 fused): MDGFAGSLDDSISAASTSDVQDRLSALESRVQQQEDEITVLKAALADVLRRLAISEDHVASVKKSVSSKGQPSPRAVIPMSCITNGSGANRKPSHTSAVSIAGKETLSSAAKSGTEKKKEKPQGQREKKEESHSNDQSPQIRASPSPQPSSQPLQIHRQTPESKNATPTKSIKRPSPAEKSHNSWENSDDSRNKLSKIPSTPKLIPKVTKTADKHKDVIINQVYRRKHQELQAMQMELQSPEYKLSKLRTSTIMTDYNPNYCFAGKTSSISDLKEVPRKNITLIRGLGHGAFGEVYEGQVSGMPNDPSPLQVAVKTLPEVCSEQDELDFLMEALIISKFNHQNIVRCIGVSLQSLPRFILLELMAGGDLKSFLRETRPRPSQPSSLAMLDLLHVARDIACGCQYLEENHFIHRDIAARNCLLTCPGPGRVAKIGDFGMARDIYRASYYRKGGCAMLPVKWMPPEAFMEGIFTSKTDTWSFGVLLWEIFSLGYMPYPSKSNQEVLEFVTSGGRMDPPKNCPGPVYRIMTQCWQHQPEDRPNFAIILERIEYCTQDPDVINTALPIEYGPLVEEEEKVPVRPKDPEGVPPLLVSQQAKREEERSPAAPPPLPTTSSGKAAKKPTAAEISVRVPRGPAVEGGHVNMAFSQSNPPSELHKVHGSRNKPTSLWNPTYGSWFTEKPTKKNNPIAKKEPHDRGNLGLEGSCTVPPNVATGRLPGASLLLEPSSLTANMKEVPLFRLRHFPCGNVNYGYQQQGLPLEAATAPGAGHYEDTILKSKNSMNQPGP
T1 sequence (Q96SW2 whole entry): as the sequence (Q96SW2 whole entry) above
T1 sequence (Q16531 whole entry partner): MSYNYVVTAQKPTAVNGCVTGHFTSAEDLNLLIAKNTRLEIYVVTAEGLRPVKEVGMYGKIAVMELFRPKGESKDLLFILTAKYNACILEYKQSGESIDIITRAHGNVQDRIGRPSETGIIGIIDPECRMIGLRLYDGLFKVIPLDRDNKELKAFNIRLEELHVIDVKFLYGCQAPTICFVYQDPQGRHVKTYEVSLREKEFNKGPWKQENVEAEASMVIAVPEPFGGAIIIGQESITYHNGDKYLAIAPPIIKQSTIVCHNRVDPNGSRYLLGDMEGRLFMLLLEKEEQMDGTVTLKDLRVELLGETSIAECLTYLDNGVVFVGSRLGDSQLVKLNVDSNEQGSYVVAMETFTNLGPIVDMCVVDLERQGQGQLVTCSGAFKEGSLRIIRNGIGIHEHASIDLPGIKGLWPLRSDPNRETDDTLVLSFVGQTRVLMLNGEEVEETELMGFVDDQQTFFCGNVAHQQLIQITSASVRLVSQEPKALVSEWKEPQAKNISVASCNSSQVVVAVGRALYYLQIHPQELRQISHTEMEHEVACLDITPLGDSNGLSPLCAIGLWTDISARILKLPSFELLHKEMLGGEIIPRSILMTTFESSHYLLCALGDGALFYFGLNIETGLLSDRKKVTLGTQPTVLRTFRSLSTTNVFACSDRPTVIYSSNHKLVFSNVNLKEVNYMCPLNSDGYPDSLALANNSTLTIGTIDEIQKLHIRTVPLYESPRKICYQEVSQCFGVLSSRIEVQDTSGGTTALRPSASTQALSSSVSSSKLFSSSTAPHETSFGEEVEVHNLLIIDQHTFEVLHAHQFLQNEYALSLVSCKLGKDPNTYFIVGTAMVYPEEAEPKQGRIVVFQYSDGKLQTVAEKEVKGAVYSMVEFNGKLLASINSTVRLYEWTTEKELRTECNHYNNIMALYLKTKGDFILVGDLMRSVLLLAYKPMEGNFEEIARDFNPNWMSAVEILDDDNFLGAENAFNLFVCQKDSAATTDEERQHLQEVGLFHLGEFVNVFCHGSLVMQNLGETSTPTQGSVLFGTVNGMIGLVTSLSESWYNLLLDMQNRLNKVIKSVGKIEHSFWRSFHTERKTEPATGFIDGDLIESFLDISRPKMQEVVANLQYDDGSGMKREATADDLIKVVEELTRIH

Take `COc1cc(N2CCC(N3CCN(Cc4ccnc(N5CCC(=O)NC5=O)c4)CC3)CC2)ccc1Nc1ncc(Cl)c(Nc2ccccc2P(C)(C)=O)n1` [GT-07609, 1-(4-((4-(1-(4-((5-chloro-4-((2-(dimethylphosphoryl)phenyl)amino)pyrimidin-2-yl)amino)-3-methoxyphenyl)piperidin-4-yl)piperazin-1-yl)methyl)pyridin-2-yl)dihydropyrimidine-2,4(1H,3H)-dione]: the IC50 in the test with H2228 was in the range of 10 to 50 nM; with MDA-MB-231, 500 to 1000 nM; in the test with MM.1S, 500 to 1000 nM; in the test with H1975, 100 to 500 nM; in the test with SR it was 1 to 10 nM; with MCF7 it was 100 to 500 nM. Besides, at ALK, the “Degradation of substrate protein ALK (substrate protein remaining %)” value (“Degradation … (substrate protein remaining %)” for short) was “A (A is defined as 0% ≤ substrate protein remaining % ≤ 80%)”.

For the molecule `Cc1cc(Nc2ncc(Cl)c(Nc3ccccc3S(=O)(=O)C(C)C)n2)c(OC(C)C)cc1C1CCN(Cc2ccc(C3CCC(=O)NC3=O)cc2)CC1` (centres unmarked) [GT-07364, 3-(4-((4-(4-((5-chloro-4-((2-(isopropylsulfonyl)phenyl)amino)pyrimidin-2-yl)amino)-5-isopropoxy-2-methylphenyl)piperidin-1-yl)methyl)phenyl)piperidine-2,6-dione], the IC50 with H2228 fell in the range of 100 to 500 nM; in the test with MDA-MB-231 it was 500 to 1000 nM; with MM.1S, 500 to 1000 nM; with SR, 10 to 50 nM; in the test on MCF7, 100 to 500 nM. Moreover, the “Degradation … (substrate protein remaining %)” value on ALK is “A (A is defined as 0% ≤ substrate protein remaining % ≤ 80%)”.

For the molecule `COc1cc(N2CCC(N3CCN(Cc4cc(N5CCC(=O)NC5=O)ncc4F)CC3)CC2)ccc1Nc1ncc(Cl)c(Nc2ccccc2P(C)(C)=O)n1` [GT-07608, 1-(4-((4-(1-(4-((5-chloro-4-((2-(dimethylphosphoryl)phenyl)amino)pyrimidin-2-yl)amino)-3-methoxyphenyl)piperidin-4-yl)piperazin-1-yl)methyl)-5-fluoropyridin-2-yl)dihydropyrimidine-2,4(1H,3H)-dione], the IC50 in the test on H2228 fell in the range of 10 to 50 nM; in the test on MDA-MB-231, 100 to 500 nM; in the test with MM.1S it was 500 to 1000 nM; in the test on H1975, 100 to 500 nM; in the test with SR, 1 to 10 nM; in the test with MCF7, 100 to 500 nM. In addition, the “Degradation … (substrate protein remaining %)” value at ALK is listed as “A (A is defined as 0% ≤ substrate protein remaining % ≤ 80%)”.

Consider `COc1cc(N2CCC(N(C)Cc3ccc(N4CCC(=O)NC4=O)cc3)CC2)ccc1Nc1ncc(Cl)c(Nc2ccccc2P(C)(C)=O)n1` [GT-07615, 1-(4-(((1-(4-((5-chloro-4-((2-(dimethylphosphoryl)phenyl)amino)pyrimidin-2-yl)amino)-3-methoxyphenyl)piperidin-4-yl)(methyl)amino)methyl)phenyl)dihydropyrimidine-2,4(1H,3H)-dione], for which the IC50 fell in the range of 10 to 50 nM in the test on H2228; 100 to 500 nM in the test with MDA-MB-231; 500 to 1000 nM with MM.1S; 100 to 500 nM with H1975; 1 to 10 nM in the test on SR; 100 to 500 nM in the test on MCF7. In addition, the “Degradation … (substrate protein remaining %)” value on ALK is “A (A is defined as 0% ≤ substrate protein remaining % ≤ 80%)”.

Take `COc1cc(N2CCC(N(C)Cc3ccc(C4CCC(=O)NC4=O)c(F)c3)CC2)ccc1Nc1ncc(Cl)c(Nc2ccccc2P(C)(C)=O)n1` (centres unmarked) [GT-03604, 3-(4-(((1-(4-((5-chloro-4-((2-(dimethylphosphoryl)phenyl)amino)pyrimidin-2-yl)amino)-3-methoxyphenyl)piperidin-4-yl)(methyl)amino)methyl)-2-fluorophenyl)piperidine-2,6-dione]: the IC50 in the test on H2228 was 10 to 50 nM; with MDA-MB-231 it was 100 to 500 nM; with MM.1S, 500 to 1000 nM; in the test with H1975, 100 to 500 nM; in the test with SR it was 1 to 10 nM. In addition, the “Degradation … (substrate protein remaining %)” value at ALK was “A (A is defined as 0% ≤ substrate protein remaining % ≤ 80%)”. Besides, the inhibition (in general, how much of the control response was suppressed) at 0.5 µM in test [1] (at 0.5µM, read-out: Inhibition rate (%) at 0.5µM) is 20 to 30%. Moreover, the inhibition at 2 µM in test [1] (at 2 µM, read-out: Inhibition rate (%) at 2 µM) was 53 to 60%.
